This assay concerns nerve/muscle (motor plate) junction, phrenic nerve/diaphragm preparation (striated muscle). The assay can be described thus: Muscle-relaxant effect on contractions of isolated rat phrenic nerve/diaphragm preparation induced by indirect stimulation via the phrenic nerve. Particulars: for inhibition at 10 µM / IC50: Rattus norvegicus; for inhibition at 10 µM: read-out: % INHIBITION OF CONTRACTIONS; for IC50: cumulative concentrations 10^−10 M to 10^−5 M, read-out: IC50 (concentration to obtain 50% of the inhibitory effect). The protocol: Hecogenin acetate and diosgenin, sold by Sigma, were tested on a model of nerve/muscle (motor plate) junction obtained in a phrenic nerve/diaphragm preparation isolated from rat (striated muscle) (Pollard B. J. et al, Br. J. Anaesth., 1988, 61, 419-424).
The phrenic nerve and the diaphragm are carefully isolated and placed in a 50 ml tank filled with survival liquid (Krebs-Henseleit liquid) maintained at a temperature of 37° C. and oxygenated with an oxygen/CO2 mixture (95/5).
The tension variations of the diaphragm are recorded with an initial pre-load of several grams.
After a relaxation period of 30 minutes, the diaphragm is stimulated indirectly via the phrenic nerve. […]

The mark [1] stands for this setting: contractions induced by indirect stimulation via phrenic nerve.

Like-named read-outs stand apart in the source and are kept apart here.

Consider `C[C@@H]1CC[C@@]2(OC1)O[C@H]1C[C@H]3[C@@H]4CC=C5C[C@@H](O)CC[C@]5(C)[C@H]4CC[C@]3(C)[C@H]1[C@@H]2C` [Diosgenin], for which the inhibition at 10 µM (concentration 10^−5 M, contractions induced by indirect stimulation via phrenic nerve) is 100%. In addition, under setting [1], the IC50 is 1000 nM.
For `CC(=O)O[C@H]1CC[C@@]2(C)[C@@H](CC[C@@H]3[C@@H]2CC(=O)[C@]2(C)[C@@H]4[C@H](C[C@@H]32)O[C@]2(CC[C@@H](C)CO2)[C@H]4C)C1` [Hecogenin acetate], the inhibition at 10 µM stood at 100%. Moreover, the IC50 under setting [1] stood at 2500 nM.
`CCN(CCCc1ccccc1)CCCc1ccccc1` [alverine, reference compound]: the “inhibition of the contractions induced by the indirect stimulations” value (concentration 10^−4 M) is “completely inhibits”. Under “concentration 10^−5 M”, the “effect on the contractions induced by the indirect stimulations” value was “no effect”.

The values above are taken from patent publication US7354956B2, “Composition containing a sapogenin and use thereof” (L'Oreal, priority 2002, dated 2008).
